Test results published in ChEMBL document CHEMBL1126103, “3'-C-branched 2'-deoxy-5-methyluridines: synthesis, enzyme inhibition, and antiviral properties” (J Med Chem, 1992).

What was measured:
MT4 [1] = test: Cytotoxic concentration required to reduce MT-4 cells viability by 50%; assay type: functional; conditions: Homo sapiens
MT4 [2] = test: Effective concentration required to inhibit HIV-1-induced cytopathicity in MT-4 cells; assay type: functional, cell-based; conditions: Homo sapiens

Row | Structure (SMILES) | CC50 (MT4 [1]) [µM] | EC50 (MT4 [2]) [µM]
1 | Cc1cn([C@H]2C[C@@](C)(O)[C@@H](CO)O2)c(=O)[nH]c1=O | > 500 | > 500
2 | Cc1cn([C@H]2C[C@@](C)(O)[C@@H](COP(=O)(O)O)O2)c(=O)[nH]c1=O | > 500 | 243
3 | Cc1cn([C@H]2C[C@](C)(O)[C@@H](CO)O2)c(=O)[nH]c1=O | > 500 | > 500
4 | Cc1cn([C@H]2C[C@](C)(O)[C@@H](COP(=O)(O)O)O2)c(=O)[nH]c1=O | > 500 | 72
